Data on eleven compounds can be found in patent US10077265B2, “Substituted oxopyridine derivatives” (BAYER PHARMA AKTIENGESELLSCHAFT, priority 2014, dated 2018).

pIC50: −log10 of the molar value.

Chain of human plasma kallikrein (P03952 391-638): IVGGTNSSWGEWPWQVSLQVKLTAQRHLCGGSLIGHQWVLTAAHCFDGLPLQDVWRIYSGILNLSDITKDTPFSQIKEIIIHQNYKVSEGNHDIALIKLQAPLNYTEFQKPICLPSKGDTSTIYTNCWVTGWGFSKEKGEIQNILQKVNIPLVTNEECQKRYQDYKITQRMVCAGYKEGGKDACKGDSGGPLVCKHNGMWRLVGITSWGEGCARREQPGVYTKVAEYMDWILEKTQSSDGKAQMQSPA
Chain of human plasma kallikrein (P03952 20-390 partner): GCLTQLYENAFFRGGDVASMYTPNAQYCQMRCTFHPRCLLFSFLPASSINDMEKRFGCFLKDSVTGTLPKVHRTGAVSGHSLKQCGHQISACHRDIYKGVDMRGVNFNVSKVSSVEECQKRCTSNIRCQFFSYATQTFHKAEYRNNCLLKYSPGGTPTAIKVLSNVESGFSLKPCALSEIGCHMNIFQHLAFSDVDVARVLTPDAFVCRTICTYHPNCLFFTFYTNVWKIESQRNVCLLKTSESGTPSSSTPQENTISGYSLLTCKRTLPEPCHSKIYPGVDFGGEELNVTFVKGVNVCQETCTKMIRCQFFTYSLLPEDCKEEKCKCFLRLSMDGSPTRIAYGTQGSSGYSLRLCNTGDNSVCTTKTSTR

This experiment deals with human plasma kallikrein (Homo sapiens (Human), UniProt P03952). The experiment in a line: Determination of the plasma kallikrein activity (fluorogenic peptide substrate). The conditions noted are these: plasma kallikrein from Kordia, substrate H-Pro-Phe-Arg-AMC, 30 min at 22° C. The format is biochemical. Here is the method:
To determine the plasma kallikrein inhibition of the substances according to the invention, a biochemical test system is used which utilizes the reaction of a peptidic plasma kallikrein substrate to determine the enzymatic activity of human plasma kallikrein. Here, plasma kallikrein cleaves from the peptic plasma kallikrein substrate the C-terminal aminomethylcoumarin (AMC), the fluorescence of which is measured. The determinations are carried out in microtitre plates.
1 μl of the diluted substance solutions is placed into each of the wells of white microtitre plates from Greiner (384 wells). 20 μl of assay buffer (50 mM Tris/HCl pH 7.4; 100 mM sodium chloride solution; 5 mM of calcium chloride solution; 0.1% of bovine serum albumin) and 20 μl of plasma kallikrein from Kordia (0.6 nM in assay buffer) are then added successively. After 15 min of incubation, the enzyme reaction is started by addition of 20 μl of the substrate H-Pro-Phe-Arg-AMC dissolved in assay buffer (10 μM in assay buffer) from Bachem, the mixture is incubated at room temperature (22° C.) for 30 min and fluorescence is then measured (excitation: 360 nm, emission: 460 nm). The measured emissions of the test batches with test substance are compared to those of control batches without test substance (only dimethyl sulphoxide instead of test substance in dimethyl sulphoxide), and IC50 values are calculated from the concentration/activity relationships.
In turn, `COCCC(C(=O)Nc1ccn2ncc(C(=O)NCCCO)c2c1)n1cc(OC)c(-c2cc(Cl)ccc2C#N)cc1=O` (racemic) [Example 13, 5-({2-[4-(5-Chloro-2-cyanophenyl)-5-methoxy-2-oxopyridin-1(2H)-yl]-4-methoxybutanoyl}amino)-N-(3-hydroxypropyl)pyrazolo[1,5-a]pyridine-3-carboxamide (racemate)] had a pIC50 of 8.28. For the compound `COCCC(C(=O)Nc1ccn2ncc(C(=O)N(C)C)c2c1)n1cc(OC)c(-c2cc(Cl)ccc2C#N)cc1=O` (racemic) [Example 6, 5-({2-[4-(5-Chloro-2-cyanophenyl)-5-methoxy-2-oxopyridin-1(2H)-yl]-4-methoxybutanoyl}amino)-N,N-dimethylpyrazolo[1,5-a]pyridine-3-carboxamide (racemate)], the pIC50 is 7.74. Regarding `COCCC(C(=O)Nc1ccn2ncc(C(=O)NCCO)c2c1)n1cc(OC)c(-c2cc(Cl)ccc2C#N)cc1=O` (racemic) [Example 14, 5-({2-[4-(5-Chloro-2-cyanophenyl)-5-methoxy-2-oxopyridin-1(2H)-yl]-4-methoxybutanoyl}amino)-N-(2-hydroxyethyl)pyrazolo[1,5-a]pyridine-3-carboxamide (racemate)], the pIC50 is 8.42.

`COCCCNC(=O)c1cnn2ccc(NC(=O)C(CCOC)n3cc(OC)c(-c4cc(Cl)ccc4C#N)cc3=O)cc12` (racemic) [Example 9, 5-({2-[4-(5-Chloro-2-cyanophenyl)-5-methoxy-2-oxopyridin-1(2H)-yl]-4-methoxybutanoyl}amino)-N-(3-methoxypropyl)pyrazolo[1,5-a]pyridine-3-carboxamide (racemate)]: the pIC50 was 8.52. As to `CCCNC(=O)c1cnn2ccc(NC(=O)C(CCOC)n3cc(OC)c(-c4cc(Cl)ccc4C#N)cc3=O)cc12` (racemic) [Example 7, 5-({2-[4-(5-Chloro-2-cyanophenyl)-5-methoxy-2-oxopyridin-1(2H)-yl]-4-methoxybutanoyl}amino)-N-propylpyrazolo[1,5-a]pyridine-3-carboxamide (racemate)], the pIC50 is 8.19.

On to `COCCNC(=O)c1cnn2ccc(NC(=O)C(CCOC)n3cc(OC)c(-c4cc(Cl)ccc4C#N)cc3=O)cc12` (racemic) [Example 8, 5-({2-[4-(5-Chloro-2-cyanophenyl)-5-methoxy-2-oxopyridin-1(2H)-yl]-4-methoxybutanoyl}amino)-N-(2-methoxyethyl)pyrazolo[1,5-a]pyridine-3-carboxamide (racemate)], for which the pIC50 was 8.42.

As to `COCCC(C(=O)Nc1ccn2ncc(C(=O)NCCC(F)(F)F)c2c1)n1cc(OC)c(-c2cc(Cl)ccc2C#N)cc1=O` (racemic) [Example 11, 5-({2-[4-(5-Chloro-2-cyanophenyl)-5-methoxy-2-oxopyridin-1(2H)-yl]-4-methoxybutanoyl}amino)-N-(3,3,3-trifluoropropyl)pyrazolo[1,5-a]pyridine-3-carboxamide (racemate)], the pIC50 was 8.18. As for `COCCC(C(=O)Nc1ccn2ncc(C(=O)NCCOC(F)(F)F)c2c1)n1cc(OC)c(-c2cc(Cl)ccc2C#N)cc1=O` (racemic) [Example 10, 5-({2-[4-(5-Chloro-2-cyanophenyl)-5-methoxy-2-oxopyridin-1(2H)-yl]-4-methoxybutanoyl}amino)-N-[2-(trifluoromethoxy)ethyl]pyrazolo[1,5-a]pyridine-3-carboxamide (racemate)], the pIC50 was 8.02.

Turning to `CCC(C(=O)Nc1ccn2ncc(C(=O)O)c2c1)n1cc(OC)c(-c2cc(Cl)ccc2C#N)cc1=O` (racemic) [Example 1, 5-({2-[4-(5-Chloro-2-cyanophenyl)-5-methoxy-2-oxopyridin-1(2H)-yl]butanoyl}amino)pyrazolo-[1,5-a]pyridine-3-carboxylic acid (racemate)], the pIC50 was 8.30. Compound `COCCC(C(=O)Nc1ccn2ncc(C(=O)NCC(F)(F)F)c2c1)n1cc(OC)c(-c2cc(Cl)ccc2C#N)cc1=O` (racemic) [Example 12, 5-({2-[4-(5-Chloro-2-cyanophenyl)-5-methoxy-2-oxopyridin-1(2H)-yl]-4-methoxybutanoyl}amino)-N-(2,2,2-trifluoroethyl)pyrazolo[1,5-a]pyridine-3-carboxamide (racemate)] showed a pIC50 of 8.30. `COCCC(C(=O)Nc1ccn2ncc(C(=O)O)c2c1)n1cc(OC)c(-c2cc(Cl)ccc2C#N)cc1=O` (racemic) [Example 2, 5-({2-[4-(5-Chloro-2-cyanophenyl)-5-methoxy-2-oxopyridin-1(2H)-yl]-4-methoxybutanoyl}-amino)pyrazolo[1,5-a]pyridine-3-carboxylic acid (racemate)]: the pIC50 was 8.60.
